Assay results: ChEMBL document CHEMBL1177720, “Selective hexapeptide agonists and antagonists for human complement C3a receptor” (J Med Chem, 2010)
Active and inactive are the calls of the source. The calls are words filed in the database; no cut-off is given here. Peptide text beside a SMILES is read from it.

Tests used:
[1] = molecular target: T1, C5a anaphylatoxin chemotactic receptor 1 (Homo sapiens) (UniProt P21730); experiment: Displacement of […] from C5a receptor in human PBMC at 1 mM by scintillation counting
T1 sequence (whole entry): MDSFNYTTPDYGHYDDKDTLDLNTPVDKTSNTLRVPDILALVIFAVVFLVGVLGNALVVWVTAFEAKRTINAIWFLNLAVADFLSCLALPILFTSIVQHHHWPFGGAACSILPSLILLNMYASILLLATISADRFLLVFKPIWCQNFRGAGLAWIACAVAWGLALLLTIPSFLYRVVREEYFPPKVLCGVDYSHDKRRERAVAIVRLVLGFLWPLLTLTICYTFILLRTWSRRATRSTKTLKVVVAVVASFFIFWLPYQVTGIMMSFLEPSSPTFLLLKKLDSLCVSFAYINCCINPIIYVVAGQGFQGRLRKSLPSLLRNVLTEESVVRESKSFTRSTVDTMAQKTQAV

[2] = molecular target: T2, C3a anaphylatoxin chemotactic receptor (Homo sapiens, UniProt Q16581); experiment: Agonist activity at human C3a receptor in human U937 cells assessed as induction of intracellular calcium release; assay type: functional, cell-based, U-937; conditions: read-out: EC50
T2 sequence (Q16581 whole entry): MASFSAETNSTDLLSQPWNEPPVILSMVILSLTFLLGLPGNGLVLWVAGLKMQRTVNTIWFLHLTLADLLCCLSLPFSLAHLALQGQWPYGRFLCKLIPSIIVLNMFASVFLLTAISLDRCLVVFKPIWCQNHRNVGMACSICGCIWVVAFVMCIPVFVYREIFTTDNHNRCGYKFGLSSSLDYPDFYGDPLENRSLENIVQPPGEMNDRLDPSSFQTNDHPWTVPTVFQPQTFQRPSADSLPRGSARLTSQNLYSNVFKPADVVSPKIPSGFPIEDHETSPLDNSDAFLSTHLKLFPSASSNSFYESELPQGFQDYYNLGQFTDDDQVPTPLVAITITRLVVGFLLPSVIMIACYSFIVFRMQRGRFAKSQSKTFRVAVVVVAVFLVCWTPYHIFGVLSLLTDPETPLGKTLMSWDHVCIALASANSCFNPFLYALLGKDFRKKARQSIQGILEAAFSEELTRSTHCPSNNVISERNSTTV

[3] = molecular target: T2, C3a anaphylatoxin chemotactic receptor; experiment: Displacement of [125I-C3a] from C3a receptor in human PBMC by scintillation counting
[4] = molecular target: T3, C5a anaphylatoxin chemotactic receptor 1 (Homo sapiens, UniProt P21730); experiment: Displacement of [125I-C5a] from C5a receptor in human PBMC by scintillation counting
T3 sequence (P21730 whole entry): T1 sequence (whole entry)

[5] = molecular target: T4, C3a anaphylatoxin chemotactic receptor (Homo sapiens) (UniProt Q16581); experiment: Displacement of [125I-C3a] from C3a receptor in human PBMC at 1 mM by scintillation counting
T4 sequence (whole entry): T2 sequence (Q16581 whole entry)

[6] = molecular target: T4, C3a anaphylatoxin chemotactic receptor (Homo sapiens); experiment: Agonist activity at human C3a receptor in human U937 cells assessed as induction of intracellular calcium release at 1 mM; assay type: functional, cell-based; conditions: U-937
[7] = molecular target: T4, C3a anaphylatoxin chemotactic receptor (Homo sapiens); experiment: Agonist activity at human C3a receptor in human U937 cells assessed as induction of intracellular calcium release at 10 uM; assay type: functional, cell-based; conditions: U-937

SMILES | Activity [1] | EC50 [2] [nM] | IC50 ([3]; read-out: IC50) [nM] | IC50 [4] [nM] | Activity [5] | Activity [6] | IC50 ([3]; read-out: pIC50 (converted)) [nM] | Activity [7]
CC(C)C[C@H](NC(=O)[C@@H]1CCCN1C(=O)[C@H](Cc1c[nH]c2ccccc12)NC(=O)[C@@H](N)Cc1ccccc1)C(=O)N[C@@H](C)C(=O)N[C@@H](CCCNC(=N)N)C(=O)O (H-FWPLAR-OH) | inactive | 580 | 274 | – | – | – | – | –
CSCC[C@H](NC(=O)[C@H](CC(=O)O)N(C)C(=O)[C@H](CCCCN)NC(=O)[C@H](Cc1ccccc1)NC(=O)[C@H](CO)NC(=O)[C@@H](N)Cc1ccc(O)cc1)C(=O)N1CCC[C@H]1C(=O)N[C@@H](CC(C)C)C(=O)N[C@H](C)C(=O)N[C@@H](CCCNC(=N)N)C(=O)O | – | 1400 | 740 | 29000 | – | – | – | –
CC(C)C[C@H](NC(=O)[C@@H](NC(=O)[C@H](Cc1c[nH]c2ccccc12)NC(=O)[C@@H](N)Cc1ccccc1)[C@@H](C)O)C(=O)N[C@@H](C)C(=O)N[C@@H](CCCNC(=N)N)C(=O)O (H-FWTLAR-OH) | inactive | 370 | 82 | – | – | – | – | –
CC(C)C[C@H](NC(=O)CNC(=O)[C@H](CC(C)C)NC(=O)[C@H](CCCCN)NC(=O)[C@H](CO)NC(=O)[C@H](C)NC(=O)[C@H](CCCN=C(N)N)NC(=O)[C@H](Cc1ccc(O)cc1)NC(=O)[C@H](CCCCN)NC(=O)[C@H](CCCCN)NC(=O)CNC(=O)[C@H](Cc1c[nH]c2ccccc12)NC(=O)[C@@H](N)Cc1c[nH]c2ccccc12)C(=O)N[C@@H](C)C(=O)N[C@@H](CCCN=C(N)N)C(=O)O (H-WWGKKYRASKLGLAR-OH) | – | 1300 | 2 | – | – | – | – | –
CSCC[C@H](NC(=O)[C@@H]1CCCN1C(=O)[C@H](CCCCN)NC(=O)[C@H](Cc1cnc[nH]1)NC(=O)[C@H](CO)NC(=O)[C@@H](N)Cc1ccc(O)cc1)C(=O)N1CCC[C@H]1C(=O)N[C@@H](CC(C)C)C(=O)N[C@H](C)C(=O)N[C@@H](CCCNC(=N)N)C(=O)O | inactive | – | – | – | inactive | – | – | –
CC(C)C[C@H](NC(=O)[C@@H](NC(=O)[C@H](Cc1ccc(O)cc1)NC(=O)[C@@H](N)Cc1ccccc1)[C@@H](C)O)C(=O)N[C@@H](C)C(=O)N[C@@H](CCCNC(=N)N)C(=O)O (H-FYTLAR-OH) | inactive | 4800 | 166 | – | – | – | – | –
CC(C)C[C@H](NC(=O)[C@@H]1CCCN1C(=O)[C@@H](N)Cc1c[nH]c2ccccc12)C(=O)N1CCC[C@H]1C(=O)N[C@@H](CCCNC(=N)N)C(=O)O (H-WPLPR-OH) | inactive | – | 27000 | – | – | inactive | 31600 | inactive
CC(=O)N[C@@H](Cc1ccccc1)C(=O)N[C@H]1CCCNC(=O)[C@H](CCCN=C(N)N)NC(=O)[C@H](Cc2c[nH]c3ccccc23)NC(=O)[C@@H](CC2CCCCC2)NC(=O)[C@@H]2CCCN2C1=O | – | – | – | – | inactive | inactive | – | –
CC(C)C[C@H](NC(=O)CNC(=O)[C@H](CC(C)C)NC(=O)[C@H](CCCCN)NC(=O)[C@H](CO)NC(=O)[C@H](C)NC(=O)[C@H](CCCNC(=N)N)NC(=O)[C@H](Cc1ccc(O)cc1)NC(=O)[C@H](CCCCN)NC(=O)[C@H](CCCCN)NC(=O)CNC(=O)[C@H](Cc1c[nH]c2ccccc12)NC(=O)[C@@H](N)Cc1c[nH]c2ccccc12)C(=O)N[C@@H](C)C(=O)N[C@@H](CCCNC(=N)N)C(=O)O (H-WWGKKYRASKLGLAR-OH) | inactive | – | – | – | – | – | – | –
CC(C)C[C@H](NC(=O)[C@@H](NC(=O)[C@H](CC(C)C)NC(=O)[C@@H](N)Cc1ccccc1)[C@@H](C)O)C(=O)N[C@@H](C)C(=O)N[C@@H](CCCNC(=N)N)C(=O)O (H-FLTLAR-OH) | inactive | 320 | 42 | – | – | – | – | –
CC[C@H](C)[C@H](NC(=O)[C@@H](N)Cc1ccccc1)C(=O)N1CCC[C@H]1C(=O)N[C@@H](CC(C)C)C(=O)N[C@@H](C)C(=O)N[C@@H](CCCNC(=N)N)C(=O)O (H-FIPLAR-OH) | inactive | 950 | 0.18 | – | – | – | 229 | –
CC(C)C[C@H](NC(=O)[C@@H](N)Cc1ccccc1)C(=O)N[C@H](C(=O)N[C@@H](CO)C(=O)N[C@@H](C)C(=O)N[C@@H](CCCNC(=N)N)C(=O)O)[C@@H](C)O (H-FLTSAR-OH) | inactive | – | 8200 | – | – | inactive | – | –
